Experiments:
[1] = system: downbeat nystagmus patients; experiment: Case studies, downbeat nystagmus patients; assay type: in vivo, human
Description: The patient was diagnosed with downbeat nystagmus: the patient was severely impaired by blurred vision (oscillopsia) due to the nystagmus, and experienced difficulties while reading and writing. The patient's visual acuity was: right 0.75, left 0.67, binocular 0.83, and the downbeat nystagmus was documented by video-oculography. […] The patient could partially suppress the nystagmus by visual fixation, as evaluated using a target center (dot presented in the center of a display for 30 seconds, FIG. 13A) and in complete darkness using goggles covered with special glasses for 45 seconds (FIG. 13B). The results (median of slow phase velocity, SPV) were as follows: Target Center-horizontal: −0.02°/s, vertical: 2.41°/s; Complete Darkness-horizontal: 0.05°/s, vertical: 3.27°/s (FIG. 13C).

[2] = system: Tay-Sachs disease patients; experiment: Case studies, Tay-Sachs disease patients (SARA, SCAFI, MoCA); assay type: in vivo, human
Description: For example, to evaluate overall neurological status, mDRS, a four-domain scale (ambulation, manipulation, language and swallowing), may be applied. Cerebellar function may be evaluated using SARA, an eight-item clinical rating scale (gait, stance, sitting, speech, fine motor function and taxis; range 0-40, where 0 is the best neurological status and 40 the worst), and SCAFI, comprising the 8-m-Walking-Time (8 MW; performed by having patients walking twice as quickly as possible from one line to another excluding turning), 9-Hole-Peg-Test (9HPT) and the number of “PATA” repetitions over 10 s. Subjective impairment and quality of life may be evaluated using the EQ-5D-5L questionnaire and VAS. To assess ocular motor function, 3-dimensional videooculography (EyeSeeCam) may be used to measure the peak velocity of saccades, gain of smooth pursuit, peak slow phase velocity of gaze-evoked nystagmus (gaze-holding function), peak slow phase velocity of optokinetic nystagmus, and gain of horizontal vestibulo-ocular reflex. To evaluate the cognitive state, WAIS-R or WISC-IV, and MoCA, assessing different cognitive domains, including attention and concentration, executive functions, memory, language, visuoconstructional skills, conceptual thinking, calculations, and orientation with a maximum of 30 points and a cut-off score of 26, may be used. The skilled person will know how to perform these and other such tests.
Before treatment was commenced, examination of the patient indicated a Scale for Assessment and Rating of Ataxia (SARA) score of 15.5/40. In addition, results from the patient's Spinocerebellar Ataxia Functional Index (SCAFI) analysis were: • Mean 8-meters Walking Test (8 MW): 21.6 s • MW 9-Hole Pegboard Test Dominant (9HPTD) (right): 48.3 s • MW 9-Hole Pegboard Test Non-Dominant (9HPTND): 44.9 s • MW PATA Word Test: 20 • Montreal Cognitive Assessment (MoCA): 18/30
The day following this examination, the patient was started on therapy with acetyl-leucine, at a dose of 3 g per day for the first week, followed by a dose of 5 g per day for the second week onwards.
The day of the examination, the patient was started on therapy with acetyl-leucine at a dose of 3 g per day for the first week, followed by a dose of 5 g per day for the second week onwards.
The patient was started on therapy with acetyl-leucine at a dose of 1.5 g per day for the first week, followed by a dose of 3 g per day for the second week onwards.

Npc1−/− mouse = experiment: Lifespan and symptom onset of Npc1−/− mouse; assay type: in vivo
Description: Separate groups of Npc1^−/− and Npc1^+/+ mice were left untreated, as controls.

[3] = system: microtubule-associated protein 1A/1B-light chain 3-phosphatidylethanolamine conjugate (LC3-II); experiment: LC3-II levels in NPC1−/− mice; assay type: in vivo, mouse; settings: 0.1 g/kg body weight daily from 3 weeks of age, sacrificed at 8 weeks
Protocol: The Niemann-Pick Disease Type C (NPC) mouse model shares a number of pathological features with Alzheimer's disease (AD) as described herein. […] Mice were sacrificed at 8 weeks of age. Levels of amyloid precursor protein C-terminal fragments (APP-CTFs) were evaluated relative to total amyloid precursor protein (APP) levels in the cerebellum for wild type, untreated wild type NPC1^−/− mice, and AL-treated wild type NPC1^−/− mice. Levels of microtubule-associated protein 1A/1B-light chain 3-phosphatidylethanolamine conjugate (LC3-II) were also evaluated relative to levels of tubulin loading control for wild type, untreated wild type NPC1^−/− mice, and AL-treated wild type NPC1^−/− mice.

[4] = system: frontotemporal dementia with parkinsonism patient; experiment: Case study, frontotemporal dementia with parkinsonism; assay type: in vivo, human; settings: frontotemporal dementia with parkinsonism
Description: After approximately one month of acetyl-leucine treatment, medication was stopped and the patient was re-examined 13 days later.

[5] = downbeat nystagmus Patient 1, approximately 14 weeks after starting
[6] = downbeat nystagmus Patient 2, on treatment, Complete Darkness
[7] = downbeat nystagmus Patient 2, on treatment, Target Center

Question: Which results are given for `CC(=O)NC(CC(C)C)C(=O)O` (racemic) [acetyl-DL-leucine]?
Answer: Effect of temporary suspension of the medication ([1]; downbeat nystagmus Patient 1): considerable deterioration; Patient-reported benefit ([1]; downbeat nystagmus Patient 1, 5 gram per day, after 10 days): significant benefit; Nystagmus (clinical examination) [1, 5]: reduction of the nystagmus; Posturography [1, 5]: reduction of postural sway; Visual acuity, left ([1]; downbeat nystagmus Patient 1, approximately 14 weeks after starting, before 0.67): 1.0; Visual acuity, right ([1]; downbeat nystagmus Patient 1, approximately 14 weeks after starting, before 0.75): 0.83; Visual acuity, binocular ([1]; downbeat nystagmus Patient 1, approximately 14 weeks after starting, before 0.83): 1; Side-effects ([1]; downbeat nystagmus Patient 1, continued treatment at 5 gram per day): no side-effects; Clinical observation ([1]; downbeat nystagmus Patient 2, 5 g/day): improvement of gait; Median of slow phase velocity (SPV), horizontal [1, 6]: 0.05 °/s; Median of slow phase velocity (SPV), vertical [1, 6]: 3.27 °/s; Median of slow phase velocity (SPV), horizontal [1, 7]: −0.02 °/s; Median of slow phase velocity (SPV), vertical [1, 7]: 2.41 °/s; Maximal gait velocity ([1]; downbeat nystagmus Patient 2, on treatment, increase from 122): 155 cm/s; Overall symptoms ([2]; Tay-Sachs Patient 1): improvement in symptoms; SARA ([2]; Tay-Sachs Patient 1, 5 g per day, after 4 months, baseline 15.5/40): 17/40; MoCA ([2]; Tay-Sachs Patient 1, after 4 months, baseline 18/30): 22/30; PATA ([2]; Tay-Sachs Patient 1, after 4 months, baseline 20): 21; 8MWT ([2]; Tay-Sachs Patient 1, after 4 months, baseline 21.6 sec): 25.49 s; 9HPTND ([2]; Tay-Sachs Patient 1, after 4 months, baseline 44.9 sec): 47.09 s; 9HPTD ([2]; Tay-Sachs Patient 1, after 4 months, baseline 48.3 sec): 48.67 s; Clinical observation ([2]; Tay-Sachs Patient 1, after four months): stable condition with slightly improved cognitive function but had deterioration of stance, gait and fine motor function; Clinical observation ([2]; Tay-Sachs Patient 1, after one month): improved fine motor skills and reduced hand tremor; MoCA ([2]; Tay-Sachs Patient 1, after one month, baseline 18/30): 21/30; PATA ([2]; Tay-Sachs Patient 1, after one month, baseline 20): 22; 8MWT ([2]; Tay-Sachs Patient 1, after one month, baseline 21.6 sec): 7 s; 9HPTND ([2]; Tay-Sachs Patient 1, after one month, baseline 44.9 sec): 40.1 s; 9HPTD ([2]; Tay-Sachs Patient 1, after one month, baseline 48.3 sec): 45.9 s; SARA ([2]; Tay-Sachs Patient 2, 5 g per day, after one month, baseline 10.5/40): 5/40; Clinical observation ([2]; Tay-Sachs Patient 2, after one month): increased enunciation, improved postural stability, and enhanced cognitive function; 8MWT ([2]; Tay-Sachs Patient 2, after one month, baseline 12.5 sec): 9.55 s; PATA ([2]; Tay-Sachs Patient 2, after one month, baseline 18): 17; MoCA ([2]; Tay-Sachs Patient 2, after one month, baseline 21/30): 25/30; 9HPTD ([2]; Tay-Sachs Patient 2, after one month, baseline 21.5 sec): 34.97 s; 9HPTND ([2]; Tay-Sachs Patient 2, after one month, baseline 35.5 sec): 39.34 s; SARA ([2]; Tay-Sachs Patient 3, 3 g per day, after one month, baseline 36/40): 33/40; Clinical observation ([2]; Tay-Sachs Patient 3, after one month): increased fine motor skills; mRDS ([2]; Tay-Sachs Patient 3, after one month, baseline 18/24): 16/24; EQ-5D-5L visual scale ([2]; Tay-Sachs Patient 3, after one month, baseline 50): 60; 8MWT ([2]; Tay-Sachs Patient 3, after one month, with support of one arm, baseline 18.1 (only with strong support)): 11.75 (with support; Delay of discernible indication of disease vs untreated Npc1−/− mice (Npc1−/− mouse; Npc1−/− mice treated from weaning): two; Lifespan (Npc1−/− mouse; Npc1−/− mouse, 0.1 g/kg from 3 weeks of age): statistically significant increase in lifespan; LC3-II levels relative to tubulin loading control [3]: lowering of LC3-II; Gait ([4]; 5 gram per day, approximately one month of treatment): significant improvement of gait; Symptoms after suspension of treatment ([4]; re-examined 13 days after stopping): symptoms worsened; Speech ([4]; under therapy): improvement of speech; Falls ([4]; under therapy, before 2-3 falls per month): falls stopped
